pIC50: −log10 of the molar value. “And” between values parts separate entries of the source, which are not always exact repeats. Equal entries are not always repeated.
Tested on: 556581-035-R-J1-PDC complex spheroid viability
Assay: Anticancer human tumor 556581-035-R-J1-PDC patient-derived ovarian carcinoma cell line growth inhibition
Conditions: for viability, T/C: stronger effect = lower value
Summary of the method: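 Multicellular complex spheroids of tumor cells with human endothelial cells (HUVEC) and mesenchymal stem cells; the LSD1 inhibitor iadademstat was combined with standard-of-care or investigational agents. Top concentration at or near clinical Cmax, half-log dilutions; final DMSO ≤0.25%.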

[1] = curve of first compound, second compound 0.1 µM
[2] = curve of first compound, second compound 0.316 µM
[3] = curve of first compound, second compound 1 µM
[4] = curve of first compound, second compound 3.16 µM
[5] = curve of first compound, second compound 10 µM
[6] = second compound 0.1 µM, first compound 0.00949 µM
[7] = second compound 0.1 µM, first compound 0.03 µM
[8] = second compound 0.1 µM, first compound 0.0949 µM
[9] = second compound 0.1 µM, first compound 0.3 µM
[10] = second compound 0.1 µM, first compound 0.949 µM
[11] = second compound 0.1 µM, first compound 3 µM
[12] = second compound 0.316 µM, first compound 0.00949 µM
[13] = second compound 0.316 µM, first compound 0.03 µM
[14] = second compound 0.316 µM, first compound 0.0949 µM
[15] = second compound 0.316 µM, first compound 0.3 µM
[16] = second compound 0.316 µM, first compound 0.949 µM
[17] = second compound 0.316 µM, first compound 3 µM
[18] = second compound 1 µM, first compound 0.00949 µM
[19] = second compound 1 µM, first compound 0.03 µM
[20] = second compound 1 µM, first compound 0.0949 µM
[21] = second compound 1 µM, first compound 0.3 µM
[22] = second compound 1 µM, first compound 0.949 µM
[23] = second compound 1 µM, first compound 3 µM
[24] = second compound 3.16 µM, first compound 0.00949 µM
[25] = second compound 3.16 µM, first compound 0.03 µM
[26] = second compound 3.16 µM, first compound 0.0949 µM
[27] = second compound 3.16 µM, first compound 0.3 µM
[28] = second compound 3.16 µM, first compound 0.949 µM
[29] = second compound 3.16 µM, first compound 3 µM
[30] = second compound 10 µM, first compound 0.00949 µM
[31] = second compound 10 µM, first compound 0.03 µM
[32] = second compound 10 µM, first compound 0.0949 µM
[33] = second compound 10 µM, first compound 0.3 µM
[34] = second compound 10 µM, first compound 0.949 µM
[35] = second compound 10 µM, first compound 3 µM
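Also: spheroids exposed to agents for seven days.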
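For viability, T/C in this document: 100% = DMSO vehicle control wells.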

NS(=O)(=O)OCC1CC(n2ccc3c(NC4CCc5ccccc54)ncnc32)CC1O (configuration not stated) + NC1CCC(NC2CC2c2ccccc2)CC1 showed a pIC50 [1] of under 5.52, a pIC50 [2] of under 5.52 and a pIC50 [3] of 5.63. It also gave a pIC50 [4] of 5.82, a pIC50 [5] of 6.26 and a viability, T/C [6] of 117%. For the same molecule, the viability, T/C [7] was 122%, the viability, T/C [8] was 124% and the viability, T/C [9] was 91.3%. The viability, T/C [10] was 86.6%, the viability, T/C [11] was 58.4% and the viability, T/C [12] was 119%. For the same molecule, the viability, T/C [13] was 112%, the viability, T/C [14] was 123% and the viability, T/C [15] was 99.8%. It also gave a viability, T/C [16] of 85.7%, a viability, T/C [17] of 50.4% and a viability, T/C [18] of 99%. For the same molecule, the viability, T/C [19] was 115%, the viability, T/C [20] was 121% and the viability, T/C [21] was 92.2%. The viability, T/C [22] was 74.3%, the viability, T/C [23] was 43.7% and the viability, T/C [24] was 103%. For the same molecule, the viability, T/C [25] was 106%, the viability, T/C [26] was 110% and the viability, T/C [27] was 84.8%. The viability, T/C [28] was 65.9%, the viability, T/C [29] was 28.8% and the viability, T/C [30] was 86.7%. It also gave a viability, T/C [31] of 86.1%, a viability, T/C [32] of 83.4% and a viability, T/C [33] of 62.1%. The viability, T/C [34] was 37.9% and the viability, T/C [35] was 15.2%.

Molecule CC1(C)CCC(CN2CCN(c3ccc(C(=O)NS(=O)(=O)c4ccc(NCC5CCOCC5)c([N+](=O)[O-])c4)c(Oc4cnc5[nH]ccc5c4)c3)CC2)=C(c2ccc(Cl)cc2)C1 + NC1CCC(NC2CC2c2ccccc2)CC1 has a pIC50 [1] of 5.36, a pIC50 [2] of 5.46 and a pIC50 [3] of 5.38. It also gave a pIC50 [4] of 5.42, a pIC50 [5] of 5.53 and a viability, T/C (second compound 0.1 µM, first compound 0.0316 µM) of 80.7%. It also gave a viability, T/C (second compound 0.1 µM, first compound 0.1 µM) of 86.4%, a viability, T/C (second compound 0.1 µM, first compound 0.316 µM) of 80% and a viability, T/C (second compound 0.1 µM, first compound 1 µM) of 82.8%. The viability, T/C (second compound 0.1 µM, first compound 3.16 µM) was 65.8%, the viability, T/C (second compound 0.1 µM, first compound 10 µM) was 9.71% and the viability, T/C (second compound 0.316 µM, first compound 0.0316 µM) was 79.9%. The viability, T/C (second compound 0.316 µM, first compound 0.1 µM) was 93.8%, the viability, T/C (second compound 0.316 µM, first compound 0.316 µM) was 89.5% and the viability, T/C (second compound 0.316 µM, first compound 1 µM) was 84.9%. For the same molecule, the viability, T/C (second compound 0.316 µM, first compound 3.16 µM) was 54.1%, the viability, T/C (second compound 0.316 µM, first compound 10 µM) was 7.68% and the viability, T/C (second compound 1 µM, first compound 0.0316 µM) was 74.2%. For the same molecule, the viability, T/C (second compound 1 µM, first compound 0.1 µM) was 90.7%, the viability, T/C (second compound 1 µM, first compound 0.316 µM) was 88% and the viability, T/C (second compound 1 µM, first compound 1 µM) was 70.8%. For the same molecule, the viability, T/C (second compound 1 µM, first compound 3.16 µM) was 64.5%, the viability, T/C (second compound 1 µM, first compound 10 µM) was 10.5% and the viability, T/C (second compound 3.16 µM, first compound 0.0316 µM) was 79.2%. It also gave a viability, T/C (second compound 3.16 µM, first compound 0.1 µM) of 77.1%, a viability, T/C (second compound 3.16 µM, first compound 0.316 µM) of 77.5% and a viability, T/C (second compound 3.16 µM, first compound 1 µM) of 70.6%. It also gave a viability, T/C (second compound 3.16 µM, first compound 3.16 µM) of 58.6%, a viability, T/C (second compound 3.16 µM, first compound 10 µM) of 11.8% and a viability, T/C (second compound 10 µM, first compound 0.0316 µM) of 75.4%. The viability, T/C (second compound 10 µM, first compound 0.1 µM) was 77.3%, the viability, T/C (second compound 10 µM, first compound 0.316 µM) was 73.5% and the viability, T/C (second compound 10 µM, first compound 1 µM) was 59.9%. The viability, T/C (second compound 10 µM, first compound 3.16 µM) was 52.4% and the viability, T/C (second compound 10 µM, first compound 10 µM) was 7.8%.

CCN(c1cc(-c2ccc(CN3CCOCC3)cc2)cc(C(=O)NCc2c(C)cc(C)[nH]c2=O)c1C)C1CCOCC1 + NC1CCC(NC2CC2c2ccccc2)CC1 gave a pIC50 [1] of 5.77, a pIC50 [2] of under 5.52 and a pIC50 [3] of 5.64. It also gave a pIC50 [4] of under 5.52, a pIC50 [5] of 5.79 and a viability, T/C [6] of 89.1%. It also gave a viability, T/C [7] of 97%, a viability, T/C [8] of 100% and a viability, T/C [9] of 81.3%. It also gave a viability, T/C [10] of 59.1%, a viability, T/C [11] of 41.7% and a viability, T/C [12] of 84.5%. For the same molecule, the viability, T/C [13] was 91.7%, the viability, T/C [14] was 93.9% and the viability, T/C [15] was 85.6%. The viability, T/C [16] was 55%, the viability, T/C [17] was 50.6% and the viability, T/C [18] was 90.7%. For the same molecule, the viability, T/C [19] was 93%, the viability, T/C [20] was 88.5% and the viability, T/C [21] was 77.3%. The viability, T/C [22] was 57.1%, the viability, T/C [23] was 47.7% and the viability, T/C [24] was 91.1%. For the same molecule, the viability, T/C [25] was 100%, the viability, T/C [26] was 76.1% and the viability, T/C [27] was 69.8%. For the same molecule, the viability, T/C [28] was 60.1%, the viability, T/C [29] was 49.5% and the viability, T/C [30] was 82.8%. The viability, T/C [31] was 88.3%, the viability, T/C [32] was 76.5% and the viability, T/C [33] was 70.6%. The viability, T/C [34] was 54% and the viability, T/C [35] was 44.9%.

For COc1cc(C2c3cc4c(cc3C(OC3OC5COC(C)OC5C(O)C3O)C3COC(=O)C23)OCO4)cc(OC)c1O (configuration not stated) + NC1CCC(NC2CC2c2ccccc2)CC1, the pIC50 [1] was 6.32, the pIC50 [2] was 6.35 and the pIC50 [3] was 6.25. It also gave a pIC50 [4] of 6.30, a pIC50 [5] of 6.48 and a viability, T/C [6] of 86.7%. For the same molecule, the viability, T/C [7] was 84.7%, the viability, T/C [8] was 68.6% and the viability, T/C [9] was 55.5%. For the same molecule, the viability, T/C [10] was 42.3%, the viability, T/C [11] was 26.2% and the viability, T/C [12] was 107%. For the same molecule, the viability, T/C [13] was 84.7%, the viability, T/C [14] was 75.3% and the viability, T/C [15] was 58.6%. For the same molecule, the viability, T/C [16] was 36.1%, the viability, T/C [17] was 23.9% and the viability, T/C [18] was 76.8%. It also gave a viability, T/C [19] of 76.2%, a viability, T/C [20] of 68.3% and a viability, T/C [21] of 58.8%. It also gave a viability, T/C [22] of 42.6%, a viability, T/C [23] of 19.2% and a viability, T/C [24] of 88.6%. For the same molecule, the viability, T/C [25] was 66.5%, the viability, T/C [26] was 74.9% and the viability, T/C [27] was 53.5%. The viability, T/C [28] was 45.8%, the viability, T/C [29] was 23.4% and the viability, T/C [30] was 71.3%. It also gave a viability, T/C [31] of 68.4%, a viability, T/C [32] of 68.7% and a viability, T/C [33] of 48.3%. The viability, T/C [34] was 38.8% and the viability, T/C [35] was 28.4%.

In the case of COc1cc(C2c3cc4c(cc3C(OC3OC5COC(C)OC5C(O)C3O)C3COC(=O)C23)OCO4)cc(OC)c1O (configuration not stated), the viability, T/C (compound 0.00949 µM) was 89% and 94.3%, the viability, T/C (compound 0.03 µM) was 82.8% and 76.5% and the viability, T/C (compound 0.0949 µM) was 70% and 56.9%. For the same molecule, the viability, T/C (compound 0.3 µM) was 65.7% and 40.6%, the viability, T/C (compound 0.949 µM) was 41.2% and 33.2% and the viability, T/C (compound 3 µM) was 23.5% and 15.7%. The pIC50 (curve of compound) was 6.21 and 6.75.
